Some results are limits rather than exact numbers.

The subject of this assay is AR / CBP ternary complex. Briefly: Ternary complex formation assay (sandwich ELISA, AR capture / CBP detection) in VCaP cell lysates. To be noted: 1.5 hours treatment, sandwich ELISA (AR capture, CBP or p300 detection). Format: cell-based. The method, then:
Preparation of Mouse Anti-AR Antibody Coated 96 Well Plates
Black MaxiSorp plates: coat with 50 μL of mouse 1/50 diluted AR antibody (Monoclonal Antibody (AR 441 from Thermo Fisher); diluted in phosphate buffered saline (PBS). Spin the liquid to the bottom of the wells, if necessary. Incubate overnight at 4° C. Next day, wash 3 times with 200 μL of TBST. Block with 200 μL of blocking buffer (5% BSA in TBST) at room temperature for 2 hours (BSA: A4503 or A2153 from Sigma). Wash plates 3 times with TBST. Plates are ready for lysates Preparation of dimerizer treated lysates
Culture cells in 96 wells at 50K VCaP cells/well for at least 3 days. Plate in 5% Omega charcoal stripped FBS in total volume of 200 uL. Treat with bifunctional for 1.5 hours by adding 1 μL of 200× stock in DMSO. Aspirate media/compound. Add and pipet-to-mix 70 μL of 1× AlphaLisa Lysis Buffer to each well (Perkin Elmer, AlphaLISA SureFire Ultra, diluted in water). Pipet up and down when adding lysis buffer to disrupt cells. Let lysis proceed for 30 min at 4° C.
Incubate for 1 hour at room temperature. Flick out the lysates. Wash 3 times with TBST. Add 75 μL of rabbit CBP or p300 antibody to each well (diluted 1:5000 in blocking buffer (5% BSA in TBST). CBP antibody: (D6C5) Rabbit mAb #7389; p300 antibody: (D8Z4E) Rabbit mAb #86377. Incubate overnight at 4° C. Wash 3 times with 300 uL TBST, each time on shaker for 5-10 min. Prepare goat anti-rabbit antibody conjugated to HRP (1/100K dilution in blocking buffer) Invitrogen Catalog number: 32260. Add 75 μL of HRP-conjugated goat anti-rabbit antibody. Incubate at room temperature for 1 hour. Flick out the HRP-antibody mixture. Wash 7-8 times with TBST, each time on shaker for 10 min. Later washes try to overflow the wells so that no residual HRP remains bound to the sides of the well. Prepare and add 75 uL/well of QuantaRed Enhance Chemifluorescent HRP Substrate solution. Immediately read fluorescence on BMG ClarioStar (ex: 570/em 585), and repeat the read in 5 minutes and 15 minutes.
Background: In an ELISA, binding on a coated surface is turned into a signal by an enzyme label.
The compound `CC(=O)N1CCc2c(c(N3CCCc4cc(-c5cnn(C)c5)c(C(F)F)cc43)nn2C2CCN(C(=O)C3CCN(c4ccc(C(=O)NC5C(C)(C)C(Oc6ccc(C#N)c(Cl)c6)C5(C)C)cn4)CC3)CC2)C1` (stereo not shown) [Compound 115, 6-[4-[4-[5-acetyl-3-[7-(difluoromethyl)-6-(1-methylpyrazol-4-yl)-3,4-dihydro-2H-quinolin-1-yl]-6,7-dihydro-4H-pyrazolo[4,3-c]pyridin-1-yl]piperidine-1-carbonyl]-1-piperidyl]-N-[3-(3-chloro-4-cyano-phenoxy)-2,2,4,4-tetramethyl-cyclobutyl]pyridine-3-carboxamide] had an EC50 of under 1 nM.
With `CC(=O)N1CCc2c(c(N3CCCc4cc(-c5cnn(C)c5)c(C)cc43)nn2C2CCN(C(=O)CC3CCN(c4ncc(C(=O)NC5C(C)(C)C(Oc6ccc(C#N)c(Cl)c6)C5(C)C)cn4)CC3)CC2)C1` (stereo not shown) [Compound 176, 2-[4-[2-[4-[5-acetyl-3-[7-methyl-6-(1-methylpyrazol-4-yl)-3,4-dihydro-2H-quinolin-1-yl]-6,7-dihydro-4H-pyrazolo[4,3-c]pyridin-1-yl]-1-piperidyl]-2-oxo-ethyl]-1-piperidyl]-N-[3-(3-chloro-4-cyano-phenoxy)-2,2,4,4-tetramethyl-cyclobutyl]pyrimidine-5-carboxamide], the EC50 was under 1 nM.
For the compound `COc1cc(OC2C(C)(C)C(NC(=N)c3ccc(N4CCC(N(C)C5CCC(n6nc(N7CCCc8cc(-c9cnn(C)c9)c(C(F)F)cc87)c7c6CCN(C(C)=O)C7)CC5)CC4)cc3)C2(C)C)ccc1C#N` (stereo not shown) [Compound 278, 4-[4-[[4-[5-acetyl-3-[7-(difluoromethyl)-6-(1-methylpyrazol-4-yl)-3,4-dihydro-2H-quinolin-1-yl]-6,7-dihydro-4H-pyrazolo[4,3-c]pyridin-1-yl]cyclohexyl]-methyl-amino]-1-piperidyl]-N-[3-(4-cyano-3-methoxy-phenoxy)-2,2,4,4-tetramethyl-cyclobutyl]benzamidine], the EC50 was under 1 nM.
Consider `CC(=O)N1CCc2c(c(N3CCCc4cc(-c5cnn(C)c5)c(C(F)F)cc43)nn2C2CCC(N3CCN(c4ncc(C(=O)NC5C(C)(C)C(Oc6ccc(C#N)c(Cl)c6)C5(C)C)cn4)CC3)CC2)C1` (stereo not shown) [Compound 391, 2-[4-[4-[5-acetyl-3-[7-(difluoromethyl)-6-(1-methylpyrazol-4-yl)-3,4-dihydro-2H-quinolin-1-yl]-6,7-dihydro-4H-pyrazolo[4,3-c]pyridin-1-yl]cyclohexyl]piperazin-1-yl]-N-[3-(3-chloro-4-cyano-phenoxy)-2,2,4,4-tetramethyl-cyclobutyl]pyrimidine-5-carboxamide], for which the EC50 was under 1 nM.
For the compound `CC(=O)N1CCc2c(c(N3CCCc4cc(-c5cnn(C)c5)c(C(F)F)cc43)nn2C2CC3(C2)CN(CC2CN(c4ccc(C(=O)NC5C(C)(C)C(Oc6ccc(C#N)c(Cl)c6)C5(C)C)nn4)C2)C3)C1` (stereo not shown) [Compound 212, 6-[3-[[6-[5-acetyl-3-[7-(difluoromethyl)-6-(1-methylpyrazol-4-yl)-3,4-dihydro-2H-quinolin-1-yl]-6,7-dihydro-4H-pyrazolo[4,3-c]pyridin-1-yl]-2-azaspiro [3.3]heptan-2-yl]methyl]azetidin-1-yl]-N-[3-(3-chloro-4-cyano-phenoxy)-2,2,4,4-tetramethyl-cyclobutyl]pyridazine-3-carboxamide], the EC50 fell in the range of 10 to 100 nM.
In the case of `CC(=O)N1CCc2c(c(N3CCCc4cc(-c5cnn(C)c5)c(C(F)F)cc43)nn2C2CCN(C3CCC4(C3)CN(c3ncc(C(=O)NC5C(C)(C)C(Oc6ccc(C#N)c(Cl)c6)C5(C)C)cn3)C4)CC2)C1` (stereo not shown) [Compound 344, 2-[6-[4-[5-acetyl-3-[7-(difluoromethyl)-6-(1-methylpyrazol-4-yl)-3,4-dihydro-2H-quinolin-1-yl]-6,7-dihydro-4H-pyrazolo[4,3-c]pyridin-1-yl]-1-piperidyl]-2-azaspiro[3.4]octan-2-yl]-N-[3-(3-chloro-4-cyano-phenoxy)-2,2,4,4-tetramethyl-cyclobutyl]pyrimidine-5-carboxamide], the EC50 was under 1 nM.
Under `COc1cc(OC2C(C)(C)C(NC(=O)c3ccc(N4CC5(CCC(N6CCC(n7nc(N8CCCc9cc(C#N)c(C(F)F)cc98)c8c7CCN(C(C)=O)C8)CC6)CC5)C4)cc3)C2(C)C)ccc1C#N` (stereo not shown) [Compound 452, 4-[7-[4-[5-acetyl-3-[6-cyano-7-(difluoromethyl)-3,4-dihydro-2H-quinolin-1-yl]-6,7-dihydro-4H-pyrazolo[4,3-c]pyridin-1-yl]-1-piperidyl]-2-azaspiro[3.5]nonan-2-yl]-N-[3-(4-cyano-3-methoxy-phenoxy)-2,2,4,4-tetramethyl-cyclobutyl]benzamide] stands under 1 nM.
Turning to `CC(=O)N1CCc2c(c(N3CCCc4cc(-c5cn(C)cn5)c(C(F)F)cc43)nn2C2CCN(CC3C(C)CN(c4ncc(C(=O)NC5C(C)(C)C(Oc6ccc(C#N)c(Cl)c6)C5(C)C)cn4)CC3C)CC2)C1` (stereo not shown) [Compound 425, 2-[4-[[4-[5-acetyl-3-[7-(difluoromethyl)-6-(1-methylimidazol-4-yl)-3,4-dihydro-2H-quinolin-1-yl]-6,7-dihydro-4H-pyrazolo[4,3-c]pyridin-1-yl]-1-piperidyl]methyl]-3,5-dimethyl-1-piperidyl]-N-[3-(3-chloro-4-cyano-phenoxy)-2,2,4,4-tetramethyl-cyclobutyl]pyrimidine-5-carboxamide], the EC50 is under 1 nM.
Under `CC(=O)N1CCc2c(c(-c3cccc4cc(-c5cnn(CCOC6CCN(c7ncc(C(=O)NC8C(C)(C)C(Oc9ccc(C#N)c(Cl)c9)C8(C)C)cn7)CC6)c5)ncc34)nn2C2CCOCC2)C1` (stereo not shown) [Compound 138, 2-[4-[2-[4-[8-(5-acetyl-1-tetrahydropyran-4-yl-6,7-dihydro-4H-pyrazolo[4,3-c]pyridin-3-yl)-3-isoquinolyl]pyrazol-1-yl]ethoxy]-1-piperidyl]-N-[3-(3-chloro-4-cyano-phenoxy)-2,2,4,4-tetramethyl-cyclobutyl]pyrimidine-5-carboxamide] stands under 1 nM; under `CC(=O)N1CCc2c(c(N3CCCc4cc(-c5cnn(C)c5)c(C(F)F)cc43)nn2C2CCC3(CC2)CCN(c2ncc(C(=O)NC4C(C)(C)C(Oc5ccc(C#N)c(Cl)c5)C4(C)C)cn2)C3)C1` (stereo not shown) [Compound 408, 2-[8-[5-acetyl-3-[7-(difluoromethyl)-6-(1-methylpyrazol-4-yl)-3,4-dihydro-2H-quinolin-1-yl]-6,7-dihydro-4H-pyrazolo[4,3-c]pyridin-1-yl]-2-azaspiro[4.5]decan-2-yl]-N-[3-(3-chloro-4-cyano-phenoxy)-2,2,4,4-tetramethyl-cyclobutyl]pyrimidine-5-carboxamide], over 100 nM; under `CC(=O)N1CCc2c(c(N3CCCc4cc(-c5cnn(C)c5)c(C(F)F)cc43)nn2C2CN(C(=O)C3CCN(c4ncc(C(=O)NC5C(C)(C)C(Oc6ccc(C#N)c(Cl)c6)C5(C)C)cn4)CC3)C2)C1` (stereo not shown) [Compound 119, 2-[4-[3-[5-acetyl-3-[7-(difluoromethyl)-6-(1-methylpyrazol-4-yl)-3,4-dihydro-2H-quinolin-1-yl]-6,7-dihydro-4H-pyrazolo[4,3-c]pyridin-1-yl]azetidine-1-carbonyl]-1-piperidyl]-N-[3-(3-chloro-4-cyano-phenoxy)-2,2,4,4-tetramethyl-cyclobutyl]pyrimidine-5-carboxamide], under 1 nM.
`CC(=O)N1CCc2c(c(N3CCCc4cc(-c5cnn(C)c5)c(C(F)F)cc43)nn2C2CCN(C3CCC(Oc4ncc(C(=O)NC5C(C)(C)C(Oc6ccc(C#N)c(Cl)c6)C5(C)C)cn4)CC3)CC2)C1` (stereo not shown) [Compound 382, 2-[4-[4-[5-acetyl-3-[7-(difluoromethyl)-6-(1-methylpyrazol-4-yl)-3,4-dihydro-2H-quinolin-1-yl]-6,7-dihydro-4H-pyrazolo[4,3-c]pyridin-1-yl]-1-piperidyl]cyclohexoxy]-N-[3-(3-chloro-4-cyano-phenoxy)-2,2,4,4-tetramethyl-cyclobutyl]pyrimidine-5-carboxamide] registered an EC50 of under 1 nM.
`CC(=O)N1CCc2c(c(N3CCCc4cc(-c5cnn(C)c5)c(C(F)F)cc43)nn2C2CCC(COC3CCN(c4ncc(C(=O)NC5C(C)(C)C(Oc6ccc(C#N)c(Cl)c6)C5(C)C)cn4)CC3)CC2)C1` (stereo not shown) [Compound 173, 2-[4-[[4-[5-acetyl-3-[7-(difluoromethyl)-6-(1-methylpyrazol-4-yl)-3,4-dihydro-2H-quinolin-1-yl]-6,7-dihydro-4H-pyrazolo[4,3-c]pyridin-1-yl]cyclohexyl]methoxy]-1-piperidyl]-N-[3-(3-chloro-4-cyano-phenoxy)-2,2,4,4-tetramethyl-cyclobutyl]pyrimidine-5-carboxamide]: the EC50 was under 1 nM.

By EC50 is commonly meant the concentration needed to bring the measured effect to its halfway point. Lower therefore signals a more potent agent.

(Values after patent publication US20250129070A1, “BIFUNCTIONAL ANDROGEN RECEPTOR COMPOUNDS” (priority 2023, published 2025).)
